Values quoted from earlier work, collected in patent US20110008428A1, “SOLID PHARMACEUTICAL COMPOSITION COMPRISING A NON-PEPTIDE ANGIOTENSIN II RECEPTOR ANTAGONIST AND A DIURETIC” (ratiopharm GmbH, priority 2008, published 2011).

Details: free acid form; physiological pH range of the gastro-intestinal tract, between pH 1-7

SMILES: CCCc1nc2c(C)cc(-c3nc4ccccc4n3C)cc2n1Cc1ccc(-c2ccccc2C(=O)O)cc1 [Telmisartan, 4′-[(1,4′-dimethyl-2′-n-propyl-[2,6′-bi-1H-benzimidazol]-1′-yl)methyl]-[1,1′-biphenyl]-2-carboxylic acid]
- solubility in aqueous systems: very poor
